Measured values taken from patent publication US10001483B2, “Methods for the treatment of Kaposi's sarcoma or KSHV-induced lymphoma using immunomodulatory compounds, and uses of biomarkers” (Celgene Corporation, priority 2015, dated 2018).
Marks after values point to notes of the source that are not given here.

Key:
Kaposi sarcoma = assay: Clinical study of pomalidomide in Kaposi sarcoma patients with and without HIV: KS responses by modified ACTG criteria; type: in vivo, human
Procedure: Enrollment: 22 patients (15 HIV positive and 7 HIV negative) median age 52 years (range 32-74) were studied. All patients with HIV were receiving antiretroviral therapy (ART) for median 48 months (7-227), HIV VL<50 copies/mL (all), and CD4 count 378 cells/μl (135-752). […] All were evaluable for response.
Aspirin at 81 mg daily was administered as thromboprophylaxis. Assessments were performed every 4 weeks for lymphocyte numbers, Kaposi sarcoma associated herpesvirus (KSHV/HHV8) viral load (VL) and HIV VL and at 8 weeks for T cell subsets and activation by immunophenotyping of peripheral blood mononuclear cells (PBMC). KSHV VL in PBMC and HIV VL in plasma were assayed by quantitative PCR; an ultrasensitive single copy assay was used for HIV VL. Changes from baseline were evaluated using the Wilcoxon signed rank test with P<0.005 considered significant given multiple comparisons. Differences in changes between the HIV infected and uninfected groups were evaluated using the Wilcoxon rank sum test. Median time of the patients on therapy 7 cycles (range 2-12).
Kaposi sarcoma responses: KS responses were evaluated every cycle and categorized as complete (CR), partial (PR), stable disease (SD), or progressive disease (PD) using modified ACTG criteria. To be evaluable for response, patients completed at least two cycles of therapy. Evaluations included lesion counts, measurement of the sum product of the diameters of five indicator lesions, assessment of nodularity, and measurement of limb circumference if tumor-associated edema was present. PR was considered as at least 50% decrease in number of lesions and/or sum product of the diameters of marker lesions and/or nodularity of lesions, and no new lesions in previously uninvolved areas nor criteria for PD. CR was considered as clinical resolution of all lesions and tumor-associated phenomenon, with biopsy confirmation. Both CR and PR had to be sustained for 4 weeks. Best response was evaluated for each patient.
Complete and partial responses are objective tumor responses by modified AIDS Clinical Trial Group Criteria for KS. Complete response also requires pathological confirmation. Individual responses are shown in FIG. 1A (maximal change in number of nodular lesions) and FIG. 1B (maximal change in total number of lesions). No decrease in quality of life during therapy was reported by patient. Improved satisfaction with appearance was reported by patients. […] This includes objective responses in patients previously refractory to standard cytotoxic therapy and in patients who have previously received other immunomodulatory drugs (e.g., thalidomide, lenalidomide, or both).
HIV infected and uninfected cohorts were evaluated separately and combined. The unacceptable ORR for further development was defined as 10% and a desirable (targeted) ORR as 40%. Up to 10 HIV negative patients were to be enrolled, with the goal of […]; that would have 83.3% probability of occurring if the true ORR were 40% and 7.0% probability of occurring if the true ORR were 10%. Up to 15 HIV positive patients were to be enrolled, with the goal of […]; that would have 90.9% probability of occurring if the true ORR were 40% and 5.6% probability of occurring if the true ORR were 10%.

[1] = tested on: KSHV-infected PEL lines (BC-3, BCBL-1, JSC-1, BC-1); assay: Cell viability (Trypan Blue or CellTiter-Glo) in KSHV-infected PEL cell lines; type: cell-based; conditions: among thalidomide, lenalidomide, pomalidomide, FIGS. 2A-2D
Procedure: (§1) In addition, the effect of the immunomodulatory drugs on KSHV down-regulation of MHC-1 during lytic activation was investigated by FACS analysis after pretreating the cells with Immunomodulatory drugs prior to lytic activation with butyrate.
Cell Viability: Cells were plated in triplicate at a density of 30,000-60,000 cells per well in 96-well plates. Cell lines were kept separate on different plates. Cell viability after indicated treatments were assayed by Trypan Blue or by adding the CellTiter-Glo reagent to measure the total ATP in cells cultured with serum-supplemented medium. For the latter, the corresponding luminescence values, correlated to the number of cells, were measured using a luminometer. The values for percentage of living cells were normalized to the control.
(§2) Cell Culture: The PEL lines JSC-1 (John Hopkins University, Baltimore, Md.), dually infected with Epstein-Barr virus (EBV) and HHV-8, and BC-3 (ATCC, Rockville, Md.) and BCBL-1(National Institute of Health AIDS Research and Reagent Program, Rockville, Md.), harboring KSHV only, and CA-46, an uninfected cancerous B-cell line, were grown in RPMI 1640 medium (Invitrogen, Carlsbad, Calif.) supplemented with 15% fetal-bovine serum (FBS) (Thermo Scientific, Rockford, Ill.) and Pen/Strep glutamine at 37° C. with 5% CO2.

IRF4 = assay: Western blot of IRF4 in PEL cell lines; type: cell-based; conditions: BC-3, BCBL-1, JSC-1
Description: as §1, §2
Western Blotting: At the end of an incubation period, cells were lysed and nuclear/cytoplasmic extracts were prepared using the NE-PER nuclear extraction kit (Pierce). Samples were subjected to SDS-PAGE (4 to 12% NuPAGE Tris-Bis) (Invitrogen) and transferred to nitrocellulose. The membrane was blocked with 5% w/v nonfat dry milk in 1×TBST (10 mM Tris-Hcl, […], 150 mM NaCl, and 0.05% Tween 20) overnight at 4° C. […]

[2] = patients; approved dose 4 mg; cited from earlier work
[3] = Combined, 22 assessable, patients (%), 5 mg per day orally 21 of 28 days
[4] = HIV negative, 7 assessable, patients (%)
[5] = HIV positive, 15 assessable, patients (%)

For `Nc1cccc2c1C(=O)N(C1CCC(=O)NC1=O)C2=O` (centres unmarked) [pomalidomide, 4-amino-2-(2,6-dioxopiperidin-3-yl)isoindoline-1,3-dione], the “response in HIV-uninfected subjects” value (Kaposi sarcoma; 5 mg for 21 of 28 days) was “all HIV-uninfected subjects responded”, the overall response rate (Kaposi sarcoma; 5 mg for 21 of 28 days, symptomatic KS regardless of HIV status) was 73% and the “subjects with edema having evidence of improvement in tumor-associated edema” value (Kaposi sarcoma; 10 of 17 subjects with edema) was 59%. The “Complete Response (CR)” value (Kaposi sarcoma; [3]) was 4 (18%), the “Partial Response (PR)” value (Kaposi sarcoma; [3]) was 12 (55%) and the “Progressive Disease (PD)” value (Kaposi sarcoma; [3]) was 3 (14%). The “Overall Response (CR + PR)” value (Kaposi sarcoma; Combined, 22 assessable, patients (%), 5 mg per day orally 21 days of 28 day cycles) was 16 (73%), the “Time to Response” value (Kaposi sarcoma; Combined, range (4-36)) was 4 weeks and the “Progressive Disease (PD)” value (Kaposi sarcoma; HIV negative, 7 assessable, patients) was 0. The “Complete Response (CR)” value (Kaposi sarcoma; [4]) was 1 (14%), the “Partial Response (PR)” value (Kaposi sarcoma; [4]) was 6 (86%) and the “Overall Response (CR + PR)” value (Kaposi sarcoma; HIV negative, 7 assessable, patients (%), 5 mg per day orally 21 of 28 days) was 7 (100%). For the same compound, the “Time to Response” value (Kaposi sarcoma; HIV negative, range (4-36)) was 4 weeks, the “Complete Response (CR)” value (Kaposi sarcoma; [5]) was 3 (20%) and the “Partial Response (PR)” value (Kaposi sarcoma; [5]) was 6 (40%). For the same compound, the “Overall Response (CR + PR)” value (Kaposi sarcoma; HIV positive, 15 assessable, patients (%), 5 mg per day orally 21 of 28 days) was 9 (60%), the “Progressive Disease (PD)” value (Kaposi sarcoma; HIV positive, 15 assessable, patients (%), includes one subject non-adherent to ART and protocol therapy) was 3 (20%)* and the “Time to Response” value (Kaposi sarcoma; HIV positive, range (4-32)) was 8 weeks. For the same compound, the “KS responses, character” value (Kaposi sarcoma; including patients refractory to cytotoxic therapy or previously given other immunomodulatory drugs) was “responses were generally rapid, were linked to improved self reported outcomes, and occurred even in advanced and heavily pretreated KS”, the “subjects in whom limb circumference showed at least a 2 cm reduction with therapy” value (Kaposi sarcoma; number of subjects, of 17 with edema) was 8 and the “representative response of a left great toe lesion” value (Kaposi sarcoma; one patient, after 4 weeks, FIG. 10B) was “complete flattening of the lesion”. For the same compound, the “representative response of a left great toe lesion” value (Kaposi sarcoma; same patient, 24 weeks, FIG. 10C) was “complete resolution of the lesion and a complete pathological response”, the “cell viability / PEL proliferation” value [1] was “most effective one at killing KSHV infected cells” and the IRF4 expression level (IRF4; 1 μM and 10 μM, FIGS. 4A-4D) was “downregulated IRF4 in all three PEL lines”. The IRF4 expression level (IRF4; indicated concentrations for 72 hours, among three tested compounds, FIGS. 3A-3C) was “most effective in downregulating IRF4” and the “Plasma Serum Concentration” value [2] was 300 nM.
